According to US20260035360A1, “INHIBITORS OF MYC AND USES THEREOF” (Northwestern University, priority 2022, published 2026):

What was measured:
Format in all cases: cell-based
MYC = molecular target: T1, MYC (Homo sapiens, UniProt P01106); experiment: MYC protein level in PC3 cells by western blot, 24 hr; details: PC-3, 24 h, PC3, 24 h, Actin control, read-out: Relative MYC protein at 10 μM (%, PC3 24 h)
T1 construct: endogenous in cells; host or cells: PC3 cells
Method: (§1) Table 2. Biological data of selected compounds. For IC50 determination. PC3 and PC12 cells were treated with increasing concentrations of the indicated compounds for 72 hrs and cell viability assessed using CellTitreGlo Assay (Promega). For MYC and ATF4 protein level determination. PC3 cells were treated with the indicated compounds for 24 hr sand cell lysates processed for western blot with MYC and ATF4 antibodies using Actin as a control. Quantification analyses were performed by Biorad ChemiDoc Imager and Bio-Rad Image Lab software.

PC3 cells = experiment: PC3 cell viability, CellTitreGlo Assay, 72 hrs; details: Homo sapiens, PC-3
Method: as §1

ATF4 = ATF4 protein level in PC3 cells by western blot, 24 hr; details: Homo sapiens, PC-3, PC3, 24 h, Actin control, read-out: Relative ATF4 protein at 10 μM (fold change, PC3 24 h)
Method: as §1

T1 sequence (P01106 whole entry): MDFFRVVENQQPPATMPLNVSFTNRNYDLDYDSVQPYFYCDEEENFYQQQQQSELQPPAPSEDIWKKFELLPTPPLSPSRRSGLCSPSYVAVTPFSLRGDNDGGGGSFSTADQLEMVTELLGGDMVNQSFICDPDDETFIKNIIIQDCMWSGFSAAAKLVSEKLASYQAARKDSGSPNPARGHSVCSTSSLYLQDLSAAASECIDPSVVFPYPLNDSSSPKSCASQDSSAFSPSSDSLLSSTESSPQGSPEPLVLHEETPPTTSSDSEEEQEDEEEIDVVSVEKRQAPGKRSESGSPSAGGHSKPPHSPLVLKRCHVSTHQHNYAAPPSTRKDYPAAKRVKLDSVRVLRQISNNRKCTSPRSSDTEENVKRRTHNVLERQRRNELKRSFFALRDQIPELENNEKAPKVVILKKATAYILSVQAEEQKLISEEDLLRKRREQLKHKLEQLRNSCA

Row | remaining activity at 10 µM (MYC) | IC50 (PC3 cells) | Compound | fold induction at 10 µM (ATF4)
1 | 25.4% | 5.3 µM | Cn1nc(C(F)(F)F)cc1-c1ccc(OCc2ccc(Cl)cc2)c(-c2ccc(Cl)c(Cl)c2)c1O [NUCC-0226496] | 10.3
2 | 43.7% | 3.59 µM | Cn1nc(C(F)(F)F)cc1-c1ccc(CCc2ccc(Cl)cc2)c(-c2ccc(Cl)c(C(F)(F)F)c2)c1O [NUCC-0226574] | 12
3 | 35% | 4 µM | C[C@@H](Oc1ccc(-c2cc(C(F)(F)F)nn2C)c(O)c1-c1ccc(Cl)c(C(F)(F)F)c1)c1ccccc1 [NUCC-0226433] | 10.6
4 | 50.8% | 6.2 µM | CNc1ccc(-c2cc(C(F)(F)F)nn2C)c(O)c1-c1ccc(Cl)c(C(F)(F)F)c1 [NUCC-0226527] | 1.2
5 | 47.4% | 5.4 µM | Cc1ccc([C@H](C)Oc2ccc(-c3cc(C(F)(F)F)nn3C)c(O)c2-c2ccc(Cl)c(C(F)(F)F)c2)cc1 [NUCC-0226435] | 4.7

Continued, compound first:

Row | Compound | remaining activity at 10 µM (MYC) | IC50 (PC3 cells) | fold induction at 10 µM (ATF4)
6 | Cc1ncsc1-c1ccc(CNC(=O)[C@@H]2C[C@@H](O)CN2C(=O)[C@@H](NC(=O)CCCCCCCCNC(=O)CCOCCCN(C(=O)c2ccc(Cl)c(C(F)(F)F)c2)c2ccc(-c3cc(C(F)(F)F)nn3C)c(O)c2)C(C)(C)C)cc1 [NUCC-0226226] | 81.9% | 5.1 µM | 10.6
7 | Cc1ncsc1-c1ccc(CNC(=O)[C@@H]2C[C@@H](O)CC2C(=O)[C@@H](NC(=O)COCCNC(=O)CCOCCCN(C(=O)c2ccc(Cl)c(C(F)(F)F)c2)c2ccc(-c3cc(C(F)(F)F)nn3C)c(O)c2)C(C)(C)C)cc1 (stereo partly drawn) [NUCC-0226228] | 38.1% | 6 µM | 23.1
8 | Cc1ncsc1-c1ccc(CNC(=O)[C@@H]2C[C@@H](O)CN2C(=O)[C@@H](NC(=O)CCCCCCCCCCNC(=O)CCOCCCN(C(=O)c2ccc(Cl)c(C(F)(F)F)c2)c2ccc(-c3cc(C(F)(F)F)nn3C)c(O)c2)C(C)(C)C)cc1 [NUCC-0226227] | 102% | 22.3 µM | 10.2
9 | Cn1nc(C(N)=O)cc1-c1cc(Cl)c(COc2ccc(Cl)cc2)c(-c2ccc(Cl)c(C(F)(F)F)c2)c1O [NUCC-0227066] | 84.2% | 8.53 µM | 3.9
10 | Cn1nc(C(F)(F)F)cc1-c1ccc(OCc2ccc(Cl)cc2)c(-c2ccc(Cl)cc2F)c1O [NUCC-0226497] | 93% | 24.8 µM | 5.9
11 | COc1ccc(C2=N[C@@H](c3ccc(Cl)cc3)[C@@H](c3ccc(Cl)cc3)N2C(=O)N2CCN(CCCCCOc3ccc(-c4cc(C(F)(F)F)nn4C)c(O)c3-c3ccc(Cl)c(C(F)(F)F)c3)C(=O)C2)c(OC(C)C)c1 [NUCC-0226223] | 91.5% | 18.6 µM | 5.5
12 | CN1C(=O)CCC(N2C(=O)c3cccc(NCCOCCOCCNC(=O)CCOCCCN(C(=O)c4ccc(Cl)c(C(F)(F)F)c4)c4ccc(-c5cc(C(F)(F)F)nn5C)c(O)c4)c3C2=O)C1=O (stereo not drawn) [NUCC-0226292] | 65.1% | 10.1 µM | 1.1
13 | Cn1nc(C(F)(F)F)cc1-c1ccc(N(CCCOCCC(=O)NCCOCCOCCNc2ccc3c(c2)C(=O)N(C2CCC(=O)NC2=O)C3=O)C(=O)c2ccc(Cl)c(C(F)(F)F)c2)cc1O (stereo not drawn) [NUCC-0226293] | 18.4% | 4.7 µM | 3.6
14 | Cn1nc(C(F)(F)F)cc1-c1ccc(N(CCCOCCC(=O)NCCOCCOCCNc2cccc3c2C(=O)N(C2CCC(=O)NC2=O)C3=O)C(=O)c2ccc(Cl)c(C(F)(F)F)c2)cc1O (stereo not drawn) [NUCC-0226231] | 53.6% | 8.5 µM | 14.3
15 | CC(=O)N[C@@H](C(=O)N1C[C@@H](O)C[C@@H]1C(=O)NCc1ccc(-c2scnc2C)cc1OCCOCCNC(=O)CCOCCCN(C(=O)c1ccc(Cl)c(C(F)(F)F)c1)c1ccc(-c2cc(C(F)(F)F)nn2C)c(O)c1)C(C)(C)C [NUCC-0226290] | 27.4% | 5.1 µM | 2.9
